In patent US20210290575A1, “METHODS AND COMPOSITIONS FOR IDENTIFICATION AND MODULATION OF MICROBIOME BIOCHEMICAL PATHWAYS TO ALTER PHENOTYPE” (Cybele Microbiome, Inc., priority 2017, published 2021):

Test system: Rhipicephalus microplus
Assay: Tick repellency of compounds produced on tick-resistant versus tick-susceptible cattle breeds
Conditions: compound produced on host; ticks on cattle (Nelore vs Holstein)
Excerpt: The tick Rhipicephalus microplus specializes on cattle and other large bovids. However, success of its blood-feeding depends on the breed of the bovine host. In an indicine and a taurine breed of cattle that present contrasting phenotypes of infestation, Nelore and Holstein, respectively, resistant and susceptible to tick infestations as ascertained by the number of ticks and the reproductive success of female ticks completing their life-cycles on these two types of host.
At the same time, different levels of host immunity may affect the composition of tick saliva, contributing to these outcomes.

## CC(=O)CCC=C(C)C [6-methyl-5-hepten-2-one]
  repellency (result in words): repellent
